Assay results as given in US3957779A, “Benzo-1,2,4-triazines” (Bayer Aktiengesellschaft, priority 1972, dated 1976).
Values after ≈ are worked out from the molar mass of the structure shown.

What was measured:
Klebsiella 8085 [1] = test: In vivo ED50, intraperitoneal infection of white mice (Table 2); settings: sc; Klebsiella 8085 i.p. infection; s.c. 15 minutes before infection; 50% survival at 24 hours
Escherichia coli C165 [2] = test: as above; settings: sc; Escherichia coli C165 i.p. infection; s.c. 15 minutes before infection; 50% survival at 24 hours
Mycoplasma bovirhinis = test: MIC, series dilution test, PPLO-medium (Table 1); format: cell-based; settings: 37°C, 18, 24 and 48 hours, read-out: Minimum inhibitory concentration (MIC)
Method: (§1) The mycoplasmae were tested in the series dilution test (PPLO-medium) at 37°C, with observations after 18, 24 and 48 hours.

Mycoplasma gallisepticum = test: MIC, series dilution test, PPLO-medium (Table 1); format: cell-based; settings: Mycoplasmoides gallisepticum, 37°C, 18, 24 and 48 hours, read-out: Minimum inhibitory concentration (MIC)
Method: as §1

Mycoplasma granularum = test: MIC, series dilution test, PPLO-medium (Table 1); format: cell-based; settings: Acholeplasma granularum, 37°C, 18, 24 and 48 hours, read-out: Minimum inhibitory concentration (MIC)
Method: as §1

[3] = test system: Mycobacterium tuberculosis; test: MIC, series dilution test, Jenssen egg medium; format: cell-based; settings: 37°C, read-out: minimum inhibitory concentration
Method: The compounds of Examples 12 and 13 show minimum inhibitory concentrations of 32 γ/ml of nutrient medium in the series dilution test, Jenssen egg medium, 37°C, against Mycobacterium tuberculosis.

[4] = test system: Staphylococcus aureus 133; test: MIC, plate test (Table 1); format: cell-based; settings: 37°C, 24 hours, read-out: Minimum inhibitory concentration (MIC)
Method: (§2) The minimum inhibitory concentration (MIC) was determined in the plate test on a complete nutrient base of the following composition: 10 g of proteose-peptone, 10 g of veal infusion, 2 g of dextrose, 3 g of sodium chloride, 2 g of disodium phosphate, 1 g of sodium acetate, 0.01 g of adenine sulphate, 0.01 g of guanine hydrochloride, 0.01 g of uracil, 0.01 g. of xantin, 12 g of agar-agar and 1 liter of water.
(§3) The incubation temperature was 37°C and the incubation time was 24 hours.

Pseudomonas aeruginosa w [5] = test: MIC, plate test (Table 1); format: cell-based; settings: 37°C, 24 hours, read-out: Minimum inhibitory concentration (MIC)
Method: as §2, §3

Klebsiella 8085 [6] = test: MIC, plate test (Table 1); format: cell-based; settings: 37°C, 24 hours, read-out: Minimum inhibitory concentration (MIC)
Method: as §2, §3

Pseudomonas aeruginosa B [7] = test: MIC, plate test (Table 1); format: cell-based; settings: 37°C, 24 hours, read-out: Minimum inhibitory concentration (MIC)
Method: as §2, §3

Salmonella species [8] = test: MIC, plate test (Table 1); format: cell-based; settings: 37°C, 24 hours, read-out: Minimum inhibitory concentration (MIC)
Method: as §2, §3

Escherichia coli A261 = test: MIC, plate test (Table 1); format: cell-based; settings: 37°C, 24 hours, read-out: Minimum inhibitory concentration (MIC)
Method: as §2, §3

Escherichia coli C165 [9] = test: MIC, plate test (Table 1); format: cell-based; settings: 37°C, 24 hours, read-out: Minimum inhibitory concentration (MIC)
Method: as §2, §3

Streptococcus pyogenes = test: MIC, plate test (Table 1); format: cell-based; settings: with serum, 37°C, 24 hours, read-out: Minimum inhibitory concentration (MIC)
Method: as §2, §3

Proteus vulgaris 1017 [10] = test: MIC, plate test (Table 1); format: cell-based; settings: 37°C, 24 hours, read-out: Minimum inhibitory concentration (MIC)
Method: as §2, §3

Klebsiella 63 = test: MIC, plate test (Table 1); format: cell-based; settings: 37°C, 24 hours, read-out: Minimum inhibitory concentration (MIC)
Method: as §2, §3

[11] = test system: Bordetella bronchiseptica; test: Turbidity test in Mueller-Hinton nutrient solution; format: cell-based; settings: 100 γ/ml, 24 hours, 37°C
Bacteroides species = test: Turbidity test in Mueller-Hinton nutrient solution; format: cell-based; settings: 100 γ/ml, 24 hours, 37°C
Borrelia species = test: Turbidity test in Mueller-Hinton nutrient solution; format: cell-based; settings: 100 γ/ml, 24 hours, 37°C
[12] = test system: Proteus indole-negative, species; test: Turbidity test in Mueller-Hinton nutrient solution; format: cell-based; settings: 100 γ/ml, 24 hours, 37°C
[13] = test system: Staphylococcus aureus 133; test: Turbidity test in Mueller-Hinton nutrient solution; format: cell-based; settings: 100 γ/ml, 24 hours, 37°C
Brucella species = format: cell-based; settings: 100 γ/ml, 24 hours, 37°C
Proteus vulgaris 1017 [14] = test: Turbidity test in Mueller-Hinton nutrient solution; format: cell-based; settings: 100 γ/ml, 24 hours, 37°C
Escherichia coli C 165 = test: Turbidity test in Mueller-Hinton nutrient solution; format: cell-based; settings: 100 γ/ml, 24 hours, 37°C
[15] = test system: Neisseria catarrhalis species; test: Turbidity test in Mueller-Hinton nutrient solution; format: cell-based; settings: 100 γ/ml, 24 hours, 37°C
[16] = test system: Corynebacterium pyogenes M; test: Turbidity test in Mueller-Hinton nutrient solution; format: cell-based; settings: 100 γ/ml, 24 hours, 37°C
Clostridium tetani = format: cell-based; settings: 100 γ/ml, 24 hours, 37°C
Clostridium botulinium = format: cell-based
Enterobacter species = test: Turbidity test in Mueller-Hinton nutrient solution; format: cell-based; settings: 100 γ/ml, 24 hours, 37°C
Pseudomonas aeruginosa B [17] = test: Turbidity test in Mueller-Hinton nutrient solution; format: cell-based; settings: 100 γ/ml, 24 hours, 37°C
[18] = test system: Pasteurella pseudotuberculosis; format: cell-based; settings: 100 γ/ml, 24 hours, 37°C
Pseudomonas aeruginosa w [19] = test: Turbidity test in Mueller-Hinton nutrient solution; format: cell-based; settings: 100 γ/ml, 24 hours, 37°C
Escherichia coli 14 = test: Turbidity test in Mueller-Hinton nutrient solution; format: cell-based; settings: 100 γ/ml, 24 hours, 37°C
Serratia species = test: Turbidity test in Mueller-Hinton nutrient solution; format: cell-based; settings: 100 γ/ml, 24 hours, 37°C
[20] = test system: Corynebacterium diphtheriae gravis; test: Turbidity test in Mueller-Hinton nutrient solution; format: cell-based; settings: 100 γ/ml, 24 hours, 37°C
Klebsiella K 63 = test: Turbidity test in Mueller-Hinton nutrient solution; format: cell-based; settings: 100 γ/ml, 24 hours, 37°C
[21] = test system: Haemophilus influenzae 281; test: Turbidity test in Mueller-Hinton nutrient solution; format: cell-based; settings: 100 γ/ml, 24 hours, 37°C
Salmonella species [22] = test: Turbidity test in Mueller-Hinton nutrient solution; format: cell-based; settings: 100 γ/ml, 24 hours, 37°C
Method: (§4) 100 γ/ml of the compounds according to the invention are dissolved in Mueller-Hinton nutrient solution, with addition of 0.1% of glucose. The nutrient solution contains […] microbes per ml. The mixture is incubated in glass test tubes for 24 hours at 37°C and after this time the degree of turbidity is determined.

Shigella species = test: Turbidity test in Mueller-Hinton nutrient solution; format: cell-based; settings: 100 γ/ml, 24 hours, 37°C
Method: as §4

Lactobacillus species = test: Turbidity test in Mueller-Hinton nutrient solution; format: cell-based; settings: 100 γ/ml, 24 hours, 37°C
Enterococcus species = test: Turbidity test in Mueller-Hinton nutrient solution; format: cell-based; settings: 100 γ/ml, 24 hours, 37°C
Streptococcus pyogenes W = test: Turbidity test in Mueller-Hinton nutrient solution; format: cell-based; settings: 100 γ/ml, 24 hours, 37°C
[23] = test system: Proteus indole-positive, species; test: Turbidity test in Mueller-Hinton nutrient solution; format: cell-based; settings: 100 γ/ml, 24 hours, 37°C
Klebsiella K 10 = test: Turbidity test in Mueller-Hinton nutrient solution; format: cell-based; settings: 100 γ/ml, 24 hours, 37°C
Escherichia coli A 261 = test: Turbidity test in Mueller-Hinton nutrient solution; format: cell-based; settings: 100 γ/ml, 24 hours, 37°C
[24] = test system: Diplococcus pneumoniae species; test: Turbidity test in Mueller-Hinton nutrient solution; format: cell-based; settings: 100 γ/ml, 24 hours, 37°C
[25] = test system: Aeromonas hydrophila species; test: Turbidity test in Mueller-Hinton nutrient solution; format: cell-based; settings: 100 γ/ml, 24 hours, 37°C

SMILES	ED50 (Klebsiella 8085 [1]) [mg/kg]	MIC [3] [µg/mL]	turbidity after incubation [11]	turbidity after incubation (Bacteroides species)	turbidity after incubation (Borrelia species)	turbidity after incubation [12]	turbidity after incubation [13]	turbidity after incubation (Brucella species)	turbidity after incubation (Proteus vulgaris 1017 [14])	turbidity after incubation (Escherichia coli C 165)	turbidity after incubation [15]	turbidity after incubation [16]	turbidity after incubation (Clostridium tetani)	turbidity after incubation (Clostridium botulinium)	turbidity after incubation (Enterobacter species)	turbidity after incubation (Pseudomonas aeruginosa B [17])	turbidity after incubation [18]	turbidity after incubation (Pseudomonas aeruginosa w [19])	turbidity after incubation (Escherichia coli 14)	turbidity after incubation (Serratia species)	other results
CNc1n[n+]([O-])c2ccccc2[n+]1[O-] [Example 1, 3-(N-methylamino)-benzo-1,2,4-triazine-1,4-di-N-oxide]	25	32 (≈ 167 µM)	–	–	–	–	–	–	–	–	–	–	–	–	–	–	–	–	–	–	ED50 (Escherichia coli C165 [2]): 25 mg/kg; MIC (Mycoplasma bovirhinis): 1 µg/mL (≈ 5.2 µM); MIC (Mycoplasma gallisepticum): 1 µg/mL (≈ 5.2 µM); MIC (Mycoplasma granularum): 1 µg/mL (≈ 5.2 µM); MIC [4]: 8 µg/mL (≈ 41.6 µM); MIC (Pseudomonas aeruginosa w [5]): 128 µg/mL (≈ 666 µM); MIC (Klebsiella 8085 [6]): 8 µg/mL (≈ 41.6 µM); MIC (Pseudomonas aeruginosa B [7]): 8 µg/mL (≈ 41.6 µM); MIC (Salmonella species [8]): 8 to 16 µg/mL (≈ 41.6 to 83.3 µM); MIC (Escherichia coli A261): 8 µg/mL (≈ 41.6 µM); MIC (Escherichia coli C165 [9]): 8 µg/mL (≈ 41.6 µM); MIC (Streptococcus pyogenes): 128 µg/mL (≈ 666 µM); MIC (Proteus vulgaris 1017 [10]): 128 µg/mL (≈ 666 µM); MIC (Klebsiella 63): 128 µg/mL (≈ 666 µM)
O=C(CCl)Nc1n[n+]([O-])c2ccccc2[n+]1[O-] [Example 9, 3-(N-chloroacetylamino)-benzo-1,2,4-triazine-1,4-di-N-oxide]	25	–	–	–	–	–	–	–	–	–	–	–	–	–	–	–	–	–	–	–	–
CNC(=O)Nc1n[n+]([O-])c2ccccc2[n+]1[O-] [Example 12, 1'-[1,4-dioxo-benzo-1,2,4-triazin-3-yl]-3'-methylurea]	–	32 (≈ 136 µM)	remained free of turbidity	remained free of turbidity	remained free of turbidity	remained free of turbidity	remained free of turbidity	remained free of turbidity	remained free of turbidity	remained free of turbidity	remained free of turbidity	remained free of turbidity	remained free of turbidity	remained free of turbidity	remained free of turbidity	remained free of turbidity	remained free of turbidity	remained free of turbidity	remained free of turbidity	remained free of turbidity	turbidity after incubation [20]: remained free of turbidity; turbidity after incubation (Klebsiella K 63): remained free of turbidity; turbidity after incubation [21]: remained free of turbidity; turbidity after incubation (Salmonella species [22]): remained free of turbidity; turbidity after incubation (Shigella species): remained free of turbidity; turbidity after incubation (Lactobacillus species): remained free of turbidity; turbidity after incubation (Enterococcus species): remained free of turbidity; turbidity after incubation (Streptococcus pyogenes W): remained free of turbidity; turbidity after incubation [23]: remained free of turbidity; turbidity after incubation (Klebsiella K 10): remained free of turbidity; turbidity after incubation (Escherichia coli A 261): remained free of turbidity; turbidity after incubation [24]: remained free of turbidity; turbidity after incubation [25]: remained free of turbidity
NC(=O)Nc1n[n+]([O-])c2ccccc2[n+]1[O-] [Example 13, 1,4-dioxo-benzo-1,2,4-triazin-3-yl-urea]	–	32 (≈ 145 µM)	remained free of turbidity	remained free of turbidity	remained free of turbidity	remained free of turbidity	remained free of turbidity	remained free of turbidity	remained free of turbidity	remained free of turbidity	remained free of turbidity	remained free of turbidity	remained free of turbidity	remained free of turbidity	remained free of turbidity	remained free of turbidity	remained free of turbidity	remained free of turbidity	remained free of turbidity	remained free of turbidity	turbidity after incubation [20]: remained free of turbidity; turbidity after incubation (Klebsiella K 63): remained free of turbidity; turbidity after incubation [21]: remained free of turbidity; turbidity after incubation (Salmonella species [22]): remained free of turbidity; turbidity after incubation (Shigella species): remained free of turbidity; turbidity after incubation (Lactobacillus species): remained free of turbidity; turbidity after incubation (Enterococcus species): remained free of turbidity; turbidity after incubation (Streptococcus pyogenes W): remained free of turbidity; turbidity after incubation [23]: remained free of turbidity; turbidity after incubation (Klebsiella K 10): remained free of turbidity; turbidity after incubation (Escherichia coli A 261): remained free of turbidity; turbidity after incubation [24]: remained free of turbidity; turbidity after incubation [25]: remained free of turbidity
